According to US20130005696A1, “BUFADIENOLIDE DERIVATIVES, PREPARING PROCESS THEREOF, COMPOSITION COMPRISING THE SAME AND THE USE THEREOF” (priority 2011, published 2013):
Like-named read-outs stand apart in the source and are kept apart here.

What was measured:
[1] = test system: HeLa human cervical carcinoma cell line; experiment: In vitro antitumor activity assay (SRB), HeLa; assay type: cell-based
Excerpt: HeLa human cervical carcinoma cell line, A-549 human non-small cell lung carcinoma cell line, NCI-H2228 human lung carcinoma cell line, NCI-H460 human lung carcinoma cell line, MDA-MB-231 human breast carcinoma cell line, MCF-7 human breast carcinoma cell line, Bel-7402 human hepatic carcinoma cell line, Hep3B human hepatic carcinoma cell line, QGY-7703 human hepatic carcinoma cell line, MV-4-11 human leukemic cell line, DAUDI human leukemic cell line, Jurkat human leukemic cell line, A498 renal carcinoma cell line, LoVo human colon carcinoma cell line, HCT1116 human colon carcinoma cell line, A431 human skin carcinoma cell line, PANC-1 human pancreatic carcinoma cell line, U87-MG human brain carcinoma cell line, SH-SY5Y human brain carcinoma cell line, RPMI-8226 human bone carcinoma cell line, HT1080 human fibrosarcoma cell line, PC-3 human prostatic carcinoma cell line, AGS human gastric adenocarcinoma cell line, and BGC-823 human gastric adenocarcinoma cell line were purchased from the Cell Bank of the Chinese Academy of Sciences.
The positive control is bufalin (formulated according to the common method), its purity is 98% or more by HPLC-UV and its structure is identified by NMR. The compounds to be tested and the positive control were diluted with normal saline with a concentration gradient of 10^−4 M, 10^−5 M, 10^−6 M, 10^−7 M and 10^−8 M.
According to cell growth rate, tumor cells in the log phase of growth were seeded into 96-well culture plates at 100 μL per well, and allowed to attach for 24 hours, followed by addition of a test compound or positive control at 10 μL per well. For each concentration, the test was carried out in triplicate wells. Solvent control wells with addition of normal saline into cell culture and a blank well containing only cell culture medium but without cells for zeroing were also included. The tumor cells were incubated for 72 hours at 37° C. under 5% CO2, and then the culture medium (RPMI-1640) was removed. The cells were fixed with 10% cool TCA by incubating for 1 h at 4° C., washed with distilled water for 5 times, and dried naturally in the air. A solution of SRB (Sigma) (4 mg/mL) in 1% glacial acetic acid was added at 100 μL per well, and the cells were stained for 15 minutes at room temperature, and the supernatant was discarded. The plates were washed for 5 times with 1% acetic acid, and dried in air. Finally, Tris solution was added at 150 μL per well, and the absorbance (A) was measured at a wavelength of 515 nm using a microplate reader. The growth inhibition on tumor cell proliferation was calculated according to the following equation:
Growth Inhibition (%)=[(Absorbance of negative control−Absorbance of blank)−(Absorbance of sample−Absorbance of blank)]/(Absorbance of negative control−Absorbance of blank)×100%
Drug concentration: 10 μM, 1 μM, 0.1 μM, 10 nM, 1 nM, 0.1 nM.
IC50 was fitted by GraphPad Prism 4.

[2] = test system: human non-small cell lung carcinoma A549 xenograft; experiment: In vivo therapeutic effect against A549 xenograft in nude mice; conditions: for Inhibition Rate (%) / Tumor Weight(g) Mean ± SE: A549 xenograft, 4 mg/kg ip QOD, after 21 days
Experimental: This experiment is to evaluate the in vivo therapeutic effects of compounds bufalin, II1D-06.HCl, II1E-01.HCl and II1B-02.HCl against human-derived lung carcinoma A549 cell xenograft in nude mice.
Solvent control: 4% DMSO & 2% Tween-80 & 5% PEG-400 solution in normal saline
Compounds to be tested: bufalin, II1B-02.HCl, II1E-01.HCl, II1D-06.HCl
Formulating method: the compound was dissolved with DMSO into a stock solution, which was then diluted into an injection with a final DMSO concentration of 4%.
Positive control: Rapamycin Formulating method: it was formulated into an injection with a final DMSO concentration of 4%.
After the tumor size reaches about 200 mm^3, the mice bearing the tumor were grouped randomly into 8 groups according to the tumor size, including the groups of solvent control, positive control rapamycin 5 mg/kg, II1E-01.HCl 2 mg/kg, II1E-01.HCl 4 mg/kg, II1E-01.HCl 6 mg/kg, II1B-02.HCl 4 mg/kg, II1D-06.HCl 4 mg/kg, bufalin 1.6 mg/kg, wherein the dosage selection is based on that the maximum tolerable dosage is 1.6 mg/kg for bufalin and 6 mg/kg for II1E-01.HCl. Rapamycin was administered intravenously once a week (QW) and the other groups were administered intraperitoneally once every other day (QOD). The tumor was weighted after 21 days to calculate the inhibition rate. The equation for calculating inhibition rate (IR) is IR=(WC−WT)/WC×100%, wherein, WC represents the tumor weight of the control group, and WT represents the tumor weight of the treating group.

[3] = test system: human hepatic carcinoma HepG2 xenograft; experiment: Therapeutic effect against HepG2 xenograft in nude mice; assay type: in vivo, Balb/c nude mice; conditions: 8 mg/kg iv, QW × 14 d
Experimental: This experiment is to investigate the in vivo inhibitory effect of II1E-01.HCl on growth of human-derived hepatic carcinoma HepG2 cell, human-derived breast carcinoma MDA-MB-231 cell, human-derived lung carcinoma H460 cell, human-derived colon carcinoma HCT-116 cell, human-derived […] MV-4-11 cell xenografts in nude mice.
Formulation of solvent control (5% anhydrous ethanol & 5% aqueous glucose solution): 2.5 mL anhydrous ethanol was added into a 50 mL tube, followed by addition of 47.5 mL 5% glucose solution for injection followed by shaking, and stored at room temperature before use.
Formulation of the preparations of the compounds to be tested: formulations with concentrations of 0.4 mg/mL and 0.6 mg/mL were prepared respectively. An appropriate amount of II1E-01.HCl was weighted and put into a 50 mL tube, followed by addition of corresponding volume of solvent to get the desired concentration and mixed using a vortex mixer. After the solid was dissolved completely, the solution was subpackaged into 4 mL vials and stored at refrigerated condition (2-8° C.) until use.
Experimental animals: Balb/c nude mice (male, six weeks old).
HepG2 cells were in vitro cultured to be proliferated. The cells in the log phase of growth were collected and resuspended in DMEM serum-free medium, and then implanted subcutaneously into the axilla of the right forelimb of nude mice. After 11 days, the tumor size reached about 250 mm^3. The mice bearing the tumor were grouped according to the tumor size into 6 groups, including the group of solvent control, groups of positive controls (Rapamycin 10 mg/kg and Vinorelbine 8 mg/kg), and groups of low (2 mg/kg), middle (4 mg/kg) and high (6 mg/kg) dosages of the testing compound II1E-01.HCl. Each group was administered intravenously at tail. In the solvent control group, the solvent control solution was administered intravenously once every other day (QOD). In the low, middle and high dosage groups of II1E-01.HCl, II1E-01.HCl was administered intravenously once every other day (QOD). In the positive control groups, Rapamycin 10 mg/kg and Vinorelbine 8 mg/kg were administered once a week (QW). The animals were given the drugs for two weeks. In the two week time period, the growth of tumor and the body weight of the mice were observed.
Two weeks after administering (the 25th day after the implantation), the tumor weight and inhibition rate were calculated, and results are listed in Table 5.

[4] = read-out: IC50, inhibitory activity on cell proliferation of HeLa cell line

Compound	IC50 [1, 4]	further results
CN(C)CCNC(=O)O[C@H]1CC[C@@]2(C)[C@H](CC[C@@H]3[C@@H]2CC[C@]2(C)[C@@H](c4ccc(=O)oc4)CC[C@]32O)C1 [II1B-01]	1.79 nM	–
CCN(CC)CCNC(=O)O[C@H]1CC[C@@]2(C)[C@H](CC[C@@H]3[C@@H]2CC[C@]2(C)[C@@H](c4ccc(=O)oc4)CC[C@]32O)C1.Cl [II1B-02•HCl]	–	inhibition of growth of human lung carcinoma A549 xenograft, in words ([2]; A549 xenograft in nude mice, bufalin at 1.6 mg/kg): significantly inhibit the growth; Inhibition Rate (%) [2]: 58.34%; Tumor Weight(g) Mean ± SE [2]: 0.7013 ± 0.0707 g
CCN(CCN(C)C)C(=O)O[C@H]1CC[C@@]2(C)[C@H](CC[C@@H]3[C@@H]2CC[C@]2(C)[C@@H](c4ccc(=O)oc4)CC[C@]32O)C1 [II1B-04]	2.17 nM	–
CCNCCN(CC)C(=O)O[C@H]1CC[C@@]2(C)[C@H](CC[C@@H]3[C@@H]2CC[C@]2(C)[C@@H](c4ccc(=O)oc4)CC[C@]32O)C1 [II1B-06]	1.11 nM	–
CNCCCN(C)C(=O)O[C@H]1CC[C@@]2(C)[C@H](CC[C@@H]3[C@@H]2CC[C@]2(C)[C@@H](c4ccc(=O)oc4)CC[C@]32O)C1 [II1B-07]	1.15 nM	–
C[C@]12CC[C@H](OC(=O)NCCN)C[C@H]1CC[C@@H]1[C@@H]2CC[C@]2(C)[C@@H](c3ccc(=O)oc3)CC[C@]12O [II1B-09]	5.72 nM	–
C[C@]12CC[C@H](OC(=O)NCCCN)C[C@H]1CC[C@@H]1[C@@H]2CC[C@]2(C)[C@@H](c3ccc(=O)oc3)CC[C@]12O [II1B-10]	1.82 nM	–
CN1CCN(C(=O)O[C@H]2CC[C@@]3(C)[C@H](CC[C@@H]4[C@@H]3CC[C@]3(C)[C@@H](c5ccc(=O)oc5)CC[C@]43O)C2)CC1 [II1D-03]	3.49 nM	–
C[C@]12CC[C@H](OC(=O)N3CCC(O)CC3)C[C@H]1CC[C@@H]1[C@@H]2CC[C@]2(C)[C@@H](c3ccc(=O)oc3)CC[C@]12O [II1D-04]	38 nM	–
C[C@]12CC[C@H](OC(=O)N3CCCNCC3)C[C@H]1CC[C@@H]1[C@@H]2CC[C@]2(C)[C@@H](c3ccc(=O)oc3)CC[C@]12O.Cl [II1D-06•HCl]	–	Inhibition Rate (%) [2]: 37.15%; Tumor Weight(g) Mean ± SE [2]: 1.0580 ± 0.0866 g
CCOC(=O)CCNC(=O)N1CCN(C(=O)O[C@H]2CC[C@@]3(C)[C@H](CC[C@@H]4[C@@H]3CC[C@]3(C)[C@@H](c5ccc(=O)oc5)CC[C@]43O)C2)CC1 [II1D-07]	2.6 nM	–
C[C@]12CC[C@H](OC(=O)N3CCN(S(C)(=O)=O)CC3)C[C@H]1CC[C@@H]1[C@@H]2CC[C@]2(C)[C@@H](c3ccc(=O)oc3)CC[C@]12O [II1D-10]	16.3 nM	–
COC(=O)c1ccccc1S(=O)(=O)N1CCN(C(=O)O[C@H]2CC[C@@]3(C)[C@H](CC[C@@H]4[C@@H]3CC[C@]3(C)[C@@H](c5ccc(=O)oc5)CC[C@]43O)C2)CC1 [II1D-12]	41.8 nM	–
CC(=O)N1CCN(C(=O)O[C@H]2CC[C@@]3(C)[C@H](CC[C@@H]4[C@@H]3CC[C@]3(C)[C@@H](c5ccc(=O)oc5)CC[C@]43O)C2)CC1 [II1D-14]	23.1 nM	–
C[C@]12CC[C@H](OC(=O)N3CCN(C(=O)c4ccccc4)CC3)C[C@H]1CC[C@@H]1[C@@H]2CC[C@]2(C)[C@@H](c3ccc(=O)oc3)CC[C@]12O [II1D-16]	44.6 nM	–
C[C@]12CC[C@H](OC(=O)N3CCNC3)C[C@H]1CC[C@@H]1[C@@H]2CC[C@]2(C)[C@@H](c3ccc(=O)oc3)CC[C@]12O [II1D-19]	5.8 nM	–
CNC1CCN(C(=O)O[C@H]2CC[C@@]3(C)[C@H](CC[C@@H]4[C@@H]3CC[C@]3(C)[C@@H](c5ccc(=O)oc5)CC[C@]43O)C2)CC1 [II1D-22]	7.34 nM	–
CCNC1CCN(C(=O)O[C@H]2CC[C@@]3(C)[C@H](CC[C@@H]4[C@@H]3CC[C@]3(C)[C@@H](c5ccc(=O)oc5)CC[C@]43O)C2)CC1 [II1D-23]	1.12 nM	–
C[C@]12CC[C@H](OC(=O)N3CCC(NCCO)CC3)C[C@H]1CC[C@@H]1[C@@H]2CC[C@]2(C)[C@@H](c3ccc(=O)oc3)CC[C@]12O [II1D-24]	7.3 nM	–
CN(C)C1CCN(C(=O)O[C@H]2CC[C@@]3(C)[C@H](CC[C@@H]4[C@@H]3CC[C@]3(C)[C@@H](c5ccc(=O)oc5)CC[C@]43O)C2)CC1 [II1D-25]	5.44 nM	–
C[C@]12CC[C@H](OC(=O)NCC3CCNCC3)C[C@H]1CC[C@@H]1[C@@H]2CC[C@]2(C)[C@@H](c3ccc(=O)oc3)CC[C@]12O [II1E-02]	4.31 nM	–
C[C@]12CC[C@H](NC(=O)N3CCNCC3)C[C@H]1CC[C@@H]1[C@@H]2CC[C@]2(C)[C@@H](c3ccc(=O)oc3)CC[C@]12O [III1D-02]	–	IC50 ([1]; Table 1, read-out: IC50, inhibitory activity on cell proliferation of HeLa cell line): 5.68 nM
CN1CCN(C(=O)N[C@H]2CC[C@@]3(C)[C@H](CC[C@@H]4[C@@H]3CC[C@]3(C)[C@@H](c5ccc(=O)oc5)CC[C@]43O)C2)CC1 [III1D-03]	41.6 nM	–
C[C@]12CC[C@H](NC(=O)N3CCCNCC3)C[C@H]1CC[C@@H]1[C@@H]2CC[C@]2(C)[C@@H](c3ccc(=O)oc3)CC[C@]12O [III1D-04]	3.98 nM	–
C[C@]12CC[C@H](NC(=O)NC3CCNCC3)C[C@H]1CC[C@@H]1[C@@H]2CC[C@]2(C)[C@@H](c3ccc(=O)oc3)CC[C@]12O [III1E-01]	7.2 nM	–
C[C@]12CC[C@H](NC(=O)NCC3CCCCN3)C[C@H]1CC[C@@H]1[C@@H]2CC[C@]2(C)[C@@H](c3ccc(=O)oc3)CC[C@]12O (stereo partly shown) [III1E-02]	8.68 nM	–
CCC1=C[C@@H]2CN(C1)Cc1c([nH]c3ccccc13)[C@@](C(=O)OC)(c1cc3c(cc1OC)N(C)[C@H]1[C@@](O)(C(=O)OC)[C@H](OC(C)=O)[C@]4(CC)C=CCN5CC[C@]31[C@@H]54)C2 [Vinorelbine, reference compound]	–	Tumor Weight(g) Mean ± SE [3]: 0.4719 ± 0.0660 g; Inhibition Rate (%) ([3]; 8 mg/kg): 38.36%
